Data published in patent US10213449B2, “Compositions and methods for treating medulloblastoma” (The Board of Trustees of the Leland Stanford Junior …, priority 2016, dated 2019).
Entries after “also recorded” stand apart in the source; their conditions may differ.

Tests used:
[1] = tested on: GNP proliferation / cerebellum; experiment: CK2 inhibition in developing mouse (cerebellar development); type: in vivo; details: mice injected with TBB between P3-P7 (30 mg/kg IP bid)
Description: The role of CK2 in cerebellar development was next investigated by injecting mice with the CK2 inhibitor TBB between P3-P7 (FIG. 2e).
Math1/nGFPtransgenic mice^8 were treated with DMSO or TBB (30 mg/kg IP bid) (EMD 218697) from […] then sacrificed 6 h following their final treatment. Brains were dissected, fixed in 4% PFA overnight then transferred into 20% sucrose for 24 h. Sections were mounted in O.C.T and sectioned at 20 μm then air-dried for 20 min prior to storing at −20° C. for up to 2 months. Sections were blocked in 0.2% triton X-100 and 2% goat serum diluted in sterile PBS for 1 h at RT. Primary antibodies used were: anti-NeuN Ab (1:200, COT: 2459079, EMD Millipore), anti-Tag1 Ab (1:100, antibody derived in the Scott lab) and TUNEL staining as per manufacturers instructions (Roche In situ Cell Death Detection Kit, cat. no. 1 684 809). All sections were incubated in primary antibody overnight at 4° C. and counter-stained with Hoechst33258 (final concentration 1 μl/ml in PBS) at RT for 10 min. Images were taken on a Leica TCS SP8 confocal microscope. Images were randomized and all measurements (length, width, Atoh-1, Tag1, TUNNEL staining) were performed by a blinded collaborator. Cerebellar folia length was compared between matched sections of control and treated mice by measuring the maximal length from the mid-base to the tip of the culmun (lobule 4/5). Culmen width was measured […] from the base of the folia between lobules 5 and 6. Prism statistical analysis software was used (GraphPad Software, CA) to calculate significance as determined by two-tailed T-tests.

[2] = tested on: Medulloblastoma cell lines (MB53, MB55 and MB21 cells); experiment: Acquired resistance in medulloblastoma cell lines; type: cell-based, mouse; details: TBB 50 uM
Description: Medulloblastoma cell lines (MB53, MB55 and MB21 cells) were cultured in Neurobasal (Life Technologies 10888-022)+B27 supplement (Invitrogen 17504044)+DMSO (0.1%), CX-4945 (10 uM) or TBB (50 uM). […] Primer sequences are provided in supplemental table 5.

[3] = tested on: Hh signaling in Sufu−/− mouse embryonic fibroblasts; experiment: RT-qPCR of Gli1 in Sufu−/− MEFs (epistasis study); type: cell-based
Source text: Epistasis studies were next performed to determine where in the hedgehog pathway CK2 acts. The effect of TBB was examined: (i) in NIH 3T3s stimulated with SAG, a SMO agonist, (ii) in Sufu−/− mouse embryonic fibroblasts (MEF), and (iii) in NIH 3T3 cells overexpressing GLI2 (FIG. 3d-3f).
Sufu^−/− MEFs (conditional deletion of exons 4-8) were kindly provided by Pao-Tien Chang (UCSF). SAG (S7779), GDC-0449 (Vismodegib, S1082) and CX-4945 (Silmitasertib, S2248) was purchased from SelleckChem.com. TBB was purchased from EMD (218697). Shh-N conditional medium was made using a HEK 293 cell line that stably secretes ShhN as previously described. Myc-GL12-DN (17649, pCS2-MT-GLI2-deltaN) plasmid was purchased from Addgene (Cambridge, Mass., USA). […]
NIH3T3s or SUFU−/− MEFs were plated in 6 well plates at 400,000 cells/well in 10% FBS media constituted of DMEM (Invitrogen11960-069) supplemented with 10% FBS (Hyclone Labs SH30070.02), pen/strep (Life Technologies 15140-122), sodium pyruvate (Invitrogen 11360-070) and glutamax (Invitrogen 35050-061). […] RNA was quantified on a nanodrop spectrophotometer (nanoddrop technologies ND-2000C). Transcript quantification was performed using a TaqMan RNA-to-Ct 1-Step Kit (Life technologies, 4392656) and the Applied Biosystems 7500 RT-PCR system as per the manufacturer's instructions. […]

[4] = tested on: MB cell lines (MB55, MB21, MB53); experiment: Cell viability of MB cell lines (CellTiter-Glo); type: cell-based, mouse; details: multiple MB cell lines derived from Ptch1+/− and Ptch1+/−; Trp53−/− mice
Description: Ptch+/−MB cell lines MB55 and MB21 were kindly gifted from Dr. Rosalind Segal (Dana Farber Cancer Institute, Harvard Medical School) and Ptch^+/−; p53^−/− MB53 cells were kindly gifted from Charles Rudin (Memorial Sloan-Kettering Cancer Center). All cell lines were validated for high Gli activity. Cell viability was assessed using CellTiter-Glo (G7573, Promega, WI, USA) according to the manufacturers instructions. Cells were plated at 10000 cells/well in 96-well plates, treated with drugs as indicated and data was collected on a TECAN Infinite 200 plate reader.

Question: How did the GNP-dependent foliary width [1] turn out when `Brc1c(Br)c(Br)c2[nH]nnc2c1Br` [TBB, 4,5,6,7-tetrabromo-2H-benzotriazole] was run?
Answer: The GNP-dependent foliary width was “decrease”.

Question: And the apoptosis [1]?
Answer: The apoptosis was “no significant change”.

Question: What about the cerebellar size [1] of the same compound?
Answer: Its cerebellar size is “decrease”.

Question: What about the foliary length [1] of the same compound?
Answer: Its foliary length is “no significant change”.

Question: What about the “number of ATOH-1 positive proliferating GNPs” value [1] of the same compound?
Answer: The value was “decrease”.

Question: What about the rate of differentiation [1] of the same compound?
Answer: Its rate of differentiation is “no significant change”.

Question: What about the “surviving cells after 2 weeks of culture with drug” value [2] of the same compound?
Answer: The value was “MB55 TBB treated (50 uM) cells remained”.

Question: And the “Gli1 mRNA / Gli transcript levels” value [3]?
Answer: Its value is “substantially decreased; also recorded: dose dependent loss of Gli1 expression”.

Question: And the cell viability [4]?
Answer: Its cell viability is “decreased; also recorded: dose dependent tumoricidal effects”.
